Assay results reported in ChEMBL document CHEMBL4028801, “A multifactorial approach to hepatobiliary transporter assessment enables improved therapeutic compound development” (Toxicol Sci, 2013).

Experiments:
[1] = target: ATP-binding cassette sub-family C member 2 (Homo sapiens, UniProt Q92887); assay: Inhibition of human MRP2 overexpressed in Sf9 cell membrane vesicles assessed as uptake of [3H]-estradiol-17beta-D-glucuronide in presence of ATP and GSH measured after 20 mins by membrane vesicle transport assay
ATP-binding cassette sub-family C member 2, sequence (Q92887 whole entry): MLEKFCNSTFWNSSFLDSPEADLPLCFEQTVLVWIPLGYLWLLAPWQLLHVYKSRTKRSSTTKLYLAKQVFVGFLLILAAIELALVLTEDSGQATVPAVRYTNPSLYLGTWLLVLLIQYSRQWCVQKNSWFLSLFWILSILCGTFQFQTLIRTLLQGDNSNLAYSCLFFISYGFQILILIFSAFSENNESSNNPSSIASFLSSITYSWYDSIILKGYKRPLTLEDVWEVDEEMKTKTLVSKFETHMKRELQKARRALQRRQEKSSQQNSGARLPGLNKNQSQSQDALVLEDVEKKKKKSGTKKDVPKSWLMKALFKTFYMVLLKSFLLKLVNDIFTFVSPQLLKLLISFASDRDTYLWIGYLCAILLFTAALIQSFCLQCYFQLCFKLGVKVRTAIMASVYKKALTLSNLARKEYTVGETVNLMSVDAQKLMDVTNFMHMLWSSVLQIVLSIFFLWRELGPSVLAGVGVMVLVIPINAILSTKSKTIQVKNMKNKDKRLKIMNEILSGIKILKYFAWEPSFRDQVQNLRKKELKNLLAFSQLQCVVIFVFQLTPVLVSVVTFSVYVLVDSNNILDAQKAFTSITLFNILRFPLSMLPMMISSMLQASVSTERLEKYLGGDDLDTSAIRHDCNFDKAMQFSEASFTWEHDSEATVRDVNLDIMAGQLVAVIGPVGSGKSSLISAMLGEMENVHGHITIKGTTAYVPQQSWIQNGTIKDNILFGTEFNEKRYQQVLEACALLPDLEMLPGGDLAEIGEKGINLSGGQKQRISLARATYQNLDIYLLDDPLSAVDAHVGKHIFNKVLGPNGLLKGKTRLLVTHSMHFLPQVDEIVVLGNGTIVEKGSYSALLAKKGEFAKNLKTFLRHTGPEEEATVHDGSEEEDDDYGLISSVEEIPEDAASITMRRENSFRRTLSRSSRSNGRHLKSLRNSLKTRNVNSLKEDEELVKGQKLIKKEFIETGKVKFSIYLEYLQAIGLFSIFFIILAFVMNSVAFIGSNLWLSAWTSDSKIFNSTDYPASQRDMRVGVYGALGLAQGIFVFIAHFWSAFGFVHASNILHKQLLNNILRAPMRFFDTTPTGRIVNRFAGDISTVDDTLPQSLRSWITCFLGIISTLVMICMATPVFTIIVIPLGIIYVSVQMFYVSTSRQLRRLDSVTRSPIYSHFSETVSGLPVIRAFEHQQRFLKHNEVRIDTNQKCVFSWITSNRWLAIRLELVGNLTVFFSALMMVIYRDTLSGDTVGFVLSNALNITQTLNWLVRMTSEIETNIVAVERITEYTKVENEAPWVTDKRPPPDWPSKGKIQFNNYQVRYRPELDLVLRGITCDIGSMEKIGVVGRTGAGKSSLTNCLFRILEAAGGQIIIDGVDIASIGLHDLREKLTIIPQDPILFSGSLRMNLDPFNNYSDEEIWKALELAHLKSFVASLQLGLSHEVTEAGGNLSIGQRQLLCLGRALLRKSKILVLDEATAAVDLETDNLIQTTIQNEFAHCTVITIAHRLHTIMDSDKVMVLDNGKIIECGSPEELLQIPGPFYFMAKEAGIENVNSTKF

[2] = target: ATP-binding cassette sub-family C member 3 (Homo sapiens, UniProt O15438); assay: Inhibition of human MRP3 overexpressed in Sf9 insect cell membrane vesicles assessed as uptake of [3H]-estradiol-17beta-D-glucuronide in presence of ATP and GSH measured after 10 mins by membrane vesicle transport assay; assay type: ADME, cell-based
ATP-binding cassette sub-family C member 3, sequence (O15438 whole entry): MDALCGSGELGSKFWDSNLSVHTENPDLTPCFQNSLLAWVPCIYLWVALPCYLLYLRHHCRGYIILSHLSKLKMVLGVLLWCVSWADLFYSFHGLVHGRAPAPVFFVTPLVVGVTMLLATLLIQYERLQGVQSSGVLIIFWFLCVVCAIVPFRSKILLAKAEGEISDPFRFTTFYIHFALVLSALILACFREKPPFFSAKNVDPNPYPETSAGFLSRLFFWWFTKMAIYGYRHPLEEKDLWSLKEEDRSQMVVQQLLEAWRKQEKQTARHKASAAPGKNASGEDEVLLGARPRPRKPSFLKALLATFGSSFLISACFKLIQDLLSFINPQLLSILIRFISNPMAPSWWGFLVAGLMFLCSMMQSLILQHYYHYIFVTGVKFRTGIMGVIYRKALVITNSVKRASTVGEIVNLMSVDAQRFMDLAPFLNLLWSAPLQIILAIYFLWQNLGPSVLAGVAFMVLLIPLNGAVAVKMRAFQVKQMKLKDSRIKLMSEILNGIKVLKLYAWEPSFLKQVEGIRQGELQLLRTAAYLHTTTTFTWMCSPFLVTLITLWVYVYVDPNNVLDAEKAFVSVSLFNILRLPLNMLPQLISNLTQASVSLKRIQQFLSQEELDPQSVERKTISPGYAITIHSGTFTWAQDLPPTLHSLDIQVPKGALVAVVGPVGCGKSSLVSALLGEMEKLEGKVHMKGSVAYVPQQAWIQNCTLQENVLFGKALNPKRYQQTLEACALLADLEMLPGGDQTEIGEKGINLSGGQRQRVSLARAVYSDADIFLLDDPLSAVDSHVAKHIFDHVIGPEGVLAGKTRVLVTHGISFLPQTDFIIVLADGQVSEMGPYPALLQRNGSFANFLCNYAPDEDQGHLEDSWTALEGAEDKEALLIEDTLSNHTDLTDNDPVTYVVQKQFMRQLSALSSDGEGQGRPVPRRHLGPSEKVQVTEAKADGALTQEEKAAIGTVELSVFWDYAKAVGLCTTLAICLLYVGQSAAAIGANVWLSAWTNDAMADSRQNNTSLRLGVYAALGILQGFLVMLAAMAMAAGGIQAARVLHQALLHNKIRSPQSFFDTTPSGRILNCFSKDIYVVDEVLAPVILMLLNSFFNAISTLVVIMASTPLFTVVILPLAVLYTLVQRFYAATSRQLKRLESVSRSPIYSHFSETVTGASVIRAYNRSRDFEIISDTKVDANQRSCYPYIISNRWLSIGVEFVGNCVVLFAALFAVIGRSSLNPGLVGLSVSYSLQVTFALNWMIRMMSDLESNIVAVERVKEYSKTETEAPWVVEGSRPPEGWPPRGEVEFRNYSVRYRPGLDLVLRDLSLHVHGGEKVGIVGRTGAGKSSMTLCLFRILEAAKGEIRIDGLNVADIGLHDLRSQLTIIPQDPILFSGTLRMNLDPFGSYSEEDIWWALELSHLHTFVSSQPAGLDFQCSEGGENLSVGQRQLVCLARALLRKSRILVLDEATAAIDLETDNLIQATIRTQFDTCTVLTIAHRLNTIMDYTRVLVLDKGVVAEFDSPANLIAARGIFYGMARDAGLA

[3] = target: T1, ATP-binding cassette sub-family C member 4 (Homo sapiens, UniProt O15439); assay: Inhibition of human MRP4 overexpressed in Sf9 cell membrane vesicles assessed as uptake of [3H]-estradiol-17beta-D-glucuronide in presence of ATP and GSH measured after 20 mins by membrane vesicle transport assay; assay type: ADME, cell-based
T1 sequence (O15439 whole entry): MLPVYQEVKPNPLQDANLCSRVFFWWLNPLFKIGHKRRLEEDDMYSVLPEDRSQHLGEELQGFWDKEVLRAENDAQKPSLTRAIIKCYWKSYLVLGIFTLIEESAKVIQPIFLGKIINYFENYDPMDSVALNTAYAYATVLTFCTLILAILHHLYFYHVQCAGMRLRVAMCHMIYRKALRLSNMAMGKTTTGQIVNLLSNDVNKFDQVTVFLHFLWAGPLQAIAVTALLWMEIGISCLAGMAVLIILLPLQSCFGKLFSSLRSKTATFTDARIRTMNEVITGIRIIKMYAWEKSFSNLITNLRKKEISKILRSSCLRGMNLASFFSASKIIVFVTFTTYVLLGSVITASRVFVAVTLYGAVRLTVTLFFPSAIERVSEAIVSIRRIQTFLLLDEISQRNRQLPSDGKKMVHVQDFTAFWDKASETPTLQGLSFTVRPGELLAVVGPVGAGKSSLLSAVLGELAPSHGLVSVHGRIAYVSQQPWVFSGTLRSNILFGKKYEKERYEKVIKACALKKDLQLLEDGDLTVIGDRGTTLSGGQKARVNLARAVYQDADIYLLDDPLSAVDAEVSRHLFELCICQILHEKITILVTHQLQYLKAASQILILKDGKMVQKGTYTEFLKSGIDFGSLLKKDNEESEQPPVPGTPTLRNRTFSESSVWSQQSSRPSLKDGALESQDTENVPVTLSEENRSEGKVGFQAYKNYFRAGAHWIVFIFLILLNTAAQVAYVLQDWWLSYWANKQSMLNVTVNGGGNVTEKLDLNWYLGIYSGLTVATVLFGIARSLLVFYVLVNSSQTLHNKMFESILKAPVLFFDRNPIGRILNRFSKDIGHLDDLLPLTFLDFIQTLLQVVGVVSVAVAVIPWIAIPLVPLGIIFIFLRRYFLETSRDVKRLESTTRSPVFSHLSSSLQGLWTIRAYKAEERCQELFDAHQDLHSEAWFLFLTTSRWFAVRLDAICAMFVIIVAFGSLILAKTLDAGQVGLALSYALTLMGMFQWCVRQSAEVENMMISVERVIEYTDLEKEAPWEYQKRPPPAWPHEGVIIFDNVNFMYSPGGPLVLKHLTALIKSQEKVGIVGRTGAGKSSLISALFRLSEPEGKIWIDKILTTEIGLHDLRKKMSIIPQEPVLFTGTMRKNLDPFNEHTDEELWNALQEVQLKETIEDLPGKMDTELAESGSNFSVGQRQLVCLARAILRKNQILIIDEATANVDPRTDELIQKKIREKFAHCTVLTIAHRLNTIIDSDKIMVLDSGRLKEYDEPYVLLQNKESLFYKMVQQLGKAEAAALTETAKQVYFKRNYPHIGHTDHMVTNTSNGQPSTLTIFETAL

[4] = AUC in human at 100 to 600 mg, po QD after 24 hrs; assay type: ADME, organism-based; details: in vivo
[5] = Drug concentration at steady state in human at 100 to 600 mg, po QD after 24 hrs; assay type: ADME, organism-based; details: in vivo, read-out: Css
[6] = Ratio of drug concentration at steady state in human at 100 to 600 mg, po QD after 24 hrs to IC50 for human BSEP overexpressed in Sf9 insect cells; assay type: ADME, organism-based; details: in vivo
[7] = AUC in human at 40 to 80 mg, po TID after 8 hrs; assay type: ADME, organism-based; details: in vivo
[8] = Drug concentration at steady state in human at 40 to 80 mg, po TID after 8 hrs; assay type: ADME, organism-based; details: in vivo, read-out: Css
[9] = Ratio of drug concentration at steady state in human at 40 to 80 mg, po TID after 8 hrs to IC50 for human BSEP overexpressed in Sf9 insect cells; assay type: ADME, organism-based; details: in vivo
[10] = Ratio of drug concentration at steady state in human at 40 to 80 mg, po TID after 8 hrs to IC50 for human MRP4 overexpressed in Sf9 insect cells; assay type: ADME, organism-based; details: in vivo
[11] = AUC in human at 1.25 to 25 mg, po QD after 24 hrs; assay type: ADME, organism-based; details: in vivo
[12] = Drug concentration at steady state in human at 1.25 to 25 mg, po QD after 24 hrs; assay type: ADME, organism-based; details: in vivo, read-out: Css
[13] = AUC in human at 200 mg, po QD for 1 to 2 weeks after 24 hrs; assay type: ADME, organism-based; set-up: time < 24 hr, dose 200 mg, route oral; details: in vivo
[14] = Drug concentration at steady state in human at 200 mg, po QD for 1 to 2 weeks after 24 hrs; assay type: ADME, organism-based; details: in vivo, read-out: Css
Homo sapiens = assay: Ratio of drug concentration at steady state in human at 200 mg, po QD for 1 to 2 weeks after 24 hrs to IC50 for human BSEP overexpressed in Sf9 insect cells; assay type: ADME, organism-based; details: in vivo
Bile salt export pump = Bile salt export pump (Homo sapiens, UniProt O95342); assay: Inhibition of human BSEP overexpressed in Sf9 cell membrane vesicles assessed as uptake of [3H]-taurocholate in presence of ATP measured after 15 to 20 mins by membrane vesicle transport assay; assay type: ADME, cell-based
Bile salt export pump, sequence (O95342 whole entry): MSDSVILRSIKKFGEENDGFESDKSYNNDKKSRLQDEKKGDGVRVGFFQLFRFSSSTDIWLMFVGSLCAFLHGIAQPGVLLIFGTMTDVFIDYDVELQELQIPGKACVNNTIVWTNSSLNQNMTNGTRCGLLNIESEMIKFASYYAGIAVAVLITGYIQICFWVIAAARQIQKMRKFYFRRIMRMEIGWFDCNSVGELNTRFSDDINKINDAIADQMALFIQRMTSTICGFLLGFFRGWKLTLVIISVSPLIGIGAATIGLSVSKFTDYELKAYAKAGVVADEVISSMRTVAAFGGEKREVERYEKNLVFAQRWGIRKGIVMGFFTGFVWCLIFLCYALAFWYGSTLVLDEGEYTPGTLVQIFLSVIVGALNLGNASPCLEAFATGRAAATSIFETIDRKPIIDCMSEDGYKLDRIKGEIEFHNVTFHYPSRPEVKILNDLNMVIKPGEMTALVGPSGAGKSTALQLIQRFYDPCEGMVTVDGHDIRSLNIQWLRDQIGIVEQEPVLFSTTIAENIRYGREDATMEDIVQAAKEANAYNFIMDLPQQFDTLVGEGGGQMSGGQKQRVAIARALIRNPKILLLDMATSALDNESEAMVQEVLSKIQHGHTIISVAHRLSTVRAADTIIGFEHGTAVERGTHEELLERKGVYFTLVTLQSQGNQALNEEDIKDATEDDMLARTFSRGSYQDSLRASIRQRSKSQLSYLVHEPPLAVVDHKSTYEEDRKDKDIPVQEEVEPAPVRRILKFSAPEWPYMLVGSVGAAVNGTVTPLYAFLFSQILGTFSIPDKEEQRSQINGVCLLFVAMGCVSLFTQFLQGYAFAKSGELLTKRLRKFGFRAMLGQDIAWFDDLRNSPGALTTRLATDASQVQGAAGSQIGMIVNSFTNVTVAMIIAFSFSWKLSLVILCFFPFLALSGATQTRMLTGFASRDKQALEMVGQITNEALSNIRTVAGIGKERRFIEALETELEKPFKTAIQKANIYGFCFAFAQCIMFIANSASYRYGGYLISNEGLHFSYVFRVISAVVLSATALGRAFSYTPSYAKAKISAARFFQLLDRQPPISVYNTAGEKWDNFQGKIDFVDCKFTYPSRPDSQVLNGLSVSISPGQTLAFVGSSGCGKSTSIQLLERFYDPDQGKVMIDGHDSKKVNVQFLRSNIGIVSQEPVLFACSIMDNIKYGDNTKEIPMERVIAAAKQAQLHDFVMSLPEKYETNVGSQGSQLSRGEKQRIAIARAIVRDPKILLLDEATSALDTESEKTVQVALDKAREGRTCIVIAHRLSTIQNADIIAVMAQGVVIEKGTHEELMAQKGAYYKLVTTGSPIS

[15] = AUC in human at 50 to 400 mg, po BID after 12 hrs; assay type: ADME, organism-based; details: in vivo
[16] = Drug concentration at steady state in human at 50 to 400 mg, po BID after 12 hrs; assay type: ADME, organism-based; details: in vivo, read-out: Css
[17] = Ratio of drug concentration at steady state in human at 50 to 400 mg, po BID after 12 hrs to IC50 for human BSEP overexpressed in Sf9 insect cells; assay type: ADME, organism-based; details: in vivo
[18] = Ratio of drug concentration at steady state in human at 100 to 400 mg, po BID after 12 hrs to IC50 for human BSEP overexpressed in Sf9 insect cells; assay type: ADME, organism-based; details: in vivo

Compound `CCOC(=O)Nc1ccc(NCc2ccc(F)cc2)nc1N` [FLUPIRTINE] has an IC50 [1] of over 133 µM, an IC50 [2] of over 133 µM and an IC50 [3] of over 133 µM. For the same compound, the AUC at 24 h [4] was 20 µM·h, the concentration at 24 h [5] was 832 nM and the Ratio [6] was 0.023.
Work on `CCOc1ccc(/C=C2\NCCc3cc(OCC)c(OCC)cc32)cc1OCC` [DROTAVERINE] yielded an IC50 [1] of over 133 µM, an IC50 [2] of over 133 µM and an IC50 [3] of 24.5 µM. It also gave an AUC at 8 h [7] of 8.18 µM·h, a concentration at 8 h [8] of 1020 nM and a Ratio [9] of 0.028. The Ratio [10] was 0.042.
`COc1ccc(Cl)cc1C(=O)NCCc1ccc(S(=O)(=O)NC(=O)NC2CCCCC2)cc1` [GLYBURIDE] showed an IC50 [2] of 33 µM, an IC50 [3] of 10.5 µM and an AUC at 24 h [11] of 2.69 µM·h. The concentration at 24 h [12] was 112 nM.
With `CCC(C)n1ncn(-c2ccc(N3CCN(c4ccc(OCC5COC(Cn6cncn6)(c6ccc(Cl)cc6Cl)O5)cc4)CC3)cc2)c1=O` (stereo not given) [ITRACONAZOLE] the IC50 [1] was over 133 µM, the IC50 [2] was over 133 µM and the IC50 [3] was over 133 µM. For the same compound, the AUC at 24 h [13] was 8.69 µM·h, the concentration at 24 h [14] was 362 nM and the Ratio (Homo sapiens) was 0.02.
Compound `C#C[C@]1(O)CC[C@H]2[C@@H]3CCC4=Cc5oncc5C[C@]4(C)[C@H]3CC[C@@]21C` [DANAZOL] has an IC50 (Bile salt export pump) of 18.7 µM, an IC50 [1] of over 133 µM and an IC50 [2] of over 133 µM. It also gave an IC50 [3] of over 133 µM, an AUC at 12 h [15] of 5.48 µM·h and a concentration at 12 h [16] of 457 nM. For the same compound, the Ratio [17] was 0.024.
Compound `COCC1=C(C(=O)OC(C)OC(=O)OC(C)C)N2C(=O)[C@@H](NC(=O)/C(=N\OC)c3csc(N)n3)[C@H]2SC1` (stereo not given in full) [CEFPODOXIME PROXETIL] has an IC50 (Bile salt export pump) of 81.7 µM, an IC50 [1] of over 133 µM and an IC50 [2] of over 133 µM. It also gave an IC50 [3] of over 133 µM and a Ratio [18] of 0.022.
